Test system: 3T3 fibroblasts
Test: Measurement of EGF activities using 3T3 fibroblasts, corrected to NIBSC EGF standard product
Assay type: cell-based
Details: recombinant EGF of purity 90% or more
Experimental: According to an embodiment of the present invention, the EGF may be an EGF which is prepared from a recombinant E. coli or a plant and is purified to a purity of 90% or more.

For “epidermal growth factor [EGF, peptide of 6,200 Da with 53 amino acid residues, prepared from recombinant E. coli or a plant, purity 90% or more]”, the “EGF activity per mg” value was “one million”.

Source: patent publication US10543160B2, “Cosmetic composition including water soluble scrub particles containing polypeptide and/or cell culture” (PAEAN AESTHETICS INC., priority 2015, dated 2020)
